Patent publication US8524765B2, “Compounds that modulate intracellular calcium” (Calcimedica, Inc., priority 2007, dated 2013)

Tests used:
hCav.1.2/β2/α2δ channels = target: T1, hCav.1.2/β2/α2δ channels (Homo sapiens, UniProt Q13936); experiment: Cloned L-type calcium channels in CHO cells (PatchXpress patch clamp); assay type: cell-based; conditions: FIG. 16
T1 construct: host or cells: CHO cells
Description: Compound A stock solutions were prepared in dimethyl sulfoxide (DMSO) and stored frozen. Compound A concentrations were prepared fresh daily by diluting stock solutions into an appropriate HEPES-buffered physiological saline solution. Each test compound formulation was sonicated at room temperatrue for at least 20 minutes to facilitate dissolution. A glass-lined 96-well compound plate was loaded with the appropriate amounts of test and control solutions, and placed in the plate well of PatchXpress®. The effects of five concentrations were evaluated. Stock solutions of the positive control were prepared in batches and frozen. The positive control concentration was prepared fresh daily by diluting stock solutions into HB-PS. The final DMSO concentration was 0.3%.
Cells were maintained in tissue culture incubators per ChanTest SOP. […]
In preparation for a recording session, intracellular solution was loaded into the intracellular compartments of the planar electrode. After establishment of a whole-cell configuration, membrane currents were recorded using dual-channel patch clamp amplifiers in the PatchXpress® system. […] Onset and steady state block of hCav.1.2/β2/α2δ channels were measured using a stimulus voltage pattern consisting of a depolarizing test pulse at 10 s intervals from a −80 mV holding potential. […] Peak current was measured during the step to 10 mV. […]

primary human T cells = experiment: Con A-induced cell proliferation of primary human T cells; assay type: cell-based; conditions: FIG. 6, read-out: IC50 for inhibition of Con A-induced cell proliferation
RBL-2H3 cells = experiment: TNF-α release assay (ELISA); assay type: cell-based; conditions: Rattus norvegicus; RBL-2H3 cells induced with TG/TPA; FIG. 3; read-out: IC50 for inhibition of TNF-alpha release
Description: To assess degranulation and cytokine release, RBL-2H3 cells were plated and stimulated with 20 nM thapsigargin/20 nM TPA for 20 hr in the presence or absence of compound of Formula (I) or Formula (II). Media was collected and assayed for the release of β-hexosaminidase or for the release of the inflammatory mediator cytokine TNF-α. The β-hexosaminidase enzymatic assay was performed by adding 200 μL 1 mM p-nitrophenyl-acetyl-glucosamide substrate (Sigma #N9376) in 0.05M Na Citrate (pH 4.5) to 50 μL of conditioned medium, incubating for 60 min at 37° C., then adding 500 μL 0.05M Na carbonate, 0.05M Na bicarbonate pH 10.5, mixing thoroughly, and reading the absorbance at 405 nm in a BioRad plate reader. The TNF-α release assay was performed using the Rat Tumor Necrosis Factor-a Ultrasensitive ELISA Kit from BioSource.

hOrail/hSTIM1 = target: T2, hOrail/hSTIM1 (Homo sapiens, UniProt Q96D31); experiment: Monster ICRAC in cells stably overexpressing hOrail/hSTIM1; assay type: cell-based; conditions: FIG. 15
T2 construct: expressed in transfected cells

[1] = Rat collagen induced arthritis (CIA) model, liver weight; assay type: in vivo; conditions: given orally, FIG. 11
Description: 40 rats are injected with collagen to get 40 solid responders on days 10,11 for 4 groups of 10. Four nonimmunized animals serve as normal controls.
Collagen is prepared by making a 4 mg/ml solution in 0.01N Acetic acid. Equal volumes of collagen and Freund's incomplete adjuvant, are emulsified by hand mixing until a bead of this material holds its form when placed in water.
Animals (10 rats/group for arthritis, 4 rats/group for normal control).
Animals in groups 2-5 are anesthetized with isoflurane and given collagen injections (DO); each animal gets 300 μl of the mixture spread over 3 subcutaneous sites on the back. On Day 6 (D6) the animals are anesthetized again and given a second collagen injection, as before.
Rats are weighed on Days 0, 3, 6, and 9-17 of arthritis, and caliper measurements of ankles taken every day beginning on Day 9. Final body weights are taken on Day 17 of arthritis. On Day 17, all animals are anesthetized for terminal blood draw and then euthanized. Subsequently, hind paws and knees are removed, the hind paws are weighed and then (with knees) placed in formalin for processing for microscopy. Livers, spleen and thymus and kidneys are also removed, trimmed of extraneous tissue and weighed. Kidneys are retained in formalin for histopathology.
Sampling will occur over 1 day and involves groups 2-5 with samples retained from all groups.

T2 sequence (Q96D31 whole entry): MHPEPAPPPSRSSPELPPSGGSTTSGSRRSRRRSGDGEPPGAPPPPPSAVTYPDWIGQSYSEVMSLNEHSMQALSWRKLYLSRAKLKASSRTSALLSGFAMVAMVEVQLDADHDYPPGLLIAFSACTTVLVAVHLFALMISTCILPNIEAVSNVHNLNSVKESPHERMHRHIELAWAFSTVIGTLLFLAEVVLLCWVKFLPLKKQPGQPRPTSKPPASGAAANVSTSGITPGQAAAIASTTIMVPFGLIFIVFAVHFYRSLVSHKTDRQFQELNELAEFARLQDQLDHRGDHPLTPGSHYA
T2 sequence (Q13586 23-685 partner): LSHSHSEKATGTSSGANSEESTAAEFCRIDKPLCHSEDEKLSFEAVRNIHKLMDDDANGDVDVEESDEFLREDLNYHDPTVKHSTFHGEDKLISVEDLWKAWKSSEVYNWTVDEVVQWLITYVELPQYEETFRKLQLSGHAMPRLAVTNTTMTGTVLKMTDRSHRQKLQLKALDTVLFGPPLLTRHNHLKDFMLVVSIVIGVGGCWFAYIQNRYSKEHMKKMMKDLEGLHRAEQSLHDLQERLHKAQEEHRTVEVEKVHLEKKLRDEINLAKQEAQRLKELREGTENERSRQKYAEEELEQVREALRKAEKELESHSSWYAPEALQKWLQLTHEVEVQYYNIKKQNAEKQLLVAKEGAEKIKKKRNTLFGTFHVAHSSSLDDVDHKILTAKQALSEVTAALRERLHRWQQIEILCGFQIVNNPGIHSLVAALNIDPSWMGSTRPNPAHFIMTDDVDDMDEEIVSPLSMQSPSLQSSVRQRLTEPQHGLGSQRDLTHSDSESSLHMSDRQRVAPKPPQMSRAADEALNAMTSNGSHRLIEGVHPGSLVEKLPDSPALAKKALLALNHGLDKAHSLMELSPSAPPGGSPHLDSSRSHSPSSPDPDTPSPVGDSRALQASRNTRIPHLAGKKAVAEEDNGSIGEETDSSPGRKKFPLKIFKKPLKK
T1 sequence (Q13936 whole entry): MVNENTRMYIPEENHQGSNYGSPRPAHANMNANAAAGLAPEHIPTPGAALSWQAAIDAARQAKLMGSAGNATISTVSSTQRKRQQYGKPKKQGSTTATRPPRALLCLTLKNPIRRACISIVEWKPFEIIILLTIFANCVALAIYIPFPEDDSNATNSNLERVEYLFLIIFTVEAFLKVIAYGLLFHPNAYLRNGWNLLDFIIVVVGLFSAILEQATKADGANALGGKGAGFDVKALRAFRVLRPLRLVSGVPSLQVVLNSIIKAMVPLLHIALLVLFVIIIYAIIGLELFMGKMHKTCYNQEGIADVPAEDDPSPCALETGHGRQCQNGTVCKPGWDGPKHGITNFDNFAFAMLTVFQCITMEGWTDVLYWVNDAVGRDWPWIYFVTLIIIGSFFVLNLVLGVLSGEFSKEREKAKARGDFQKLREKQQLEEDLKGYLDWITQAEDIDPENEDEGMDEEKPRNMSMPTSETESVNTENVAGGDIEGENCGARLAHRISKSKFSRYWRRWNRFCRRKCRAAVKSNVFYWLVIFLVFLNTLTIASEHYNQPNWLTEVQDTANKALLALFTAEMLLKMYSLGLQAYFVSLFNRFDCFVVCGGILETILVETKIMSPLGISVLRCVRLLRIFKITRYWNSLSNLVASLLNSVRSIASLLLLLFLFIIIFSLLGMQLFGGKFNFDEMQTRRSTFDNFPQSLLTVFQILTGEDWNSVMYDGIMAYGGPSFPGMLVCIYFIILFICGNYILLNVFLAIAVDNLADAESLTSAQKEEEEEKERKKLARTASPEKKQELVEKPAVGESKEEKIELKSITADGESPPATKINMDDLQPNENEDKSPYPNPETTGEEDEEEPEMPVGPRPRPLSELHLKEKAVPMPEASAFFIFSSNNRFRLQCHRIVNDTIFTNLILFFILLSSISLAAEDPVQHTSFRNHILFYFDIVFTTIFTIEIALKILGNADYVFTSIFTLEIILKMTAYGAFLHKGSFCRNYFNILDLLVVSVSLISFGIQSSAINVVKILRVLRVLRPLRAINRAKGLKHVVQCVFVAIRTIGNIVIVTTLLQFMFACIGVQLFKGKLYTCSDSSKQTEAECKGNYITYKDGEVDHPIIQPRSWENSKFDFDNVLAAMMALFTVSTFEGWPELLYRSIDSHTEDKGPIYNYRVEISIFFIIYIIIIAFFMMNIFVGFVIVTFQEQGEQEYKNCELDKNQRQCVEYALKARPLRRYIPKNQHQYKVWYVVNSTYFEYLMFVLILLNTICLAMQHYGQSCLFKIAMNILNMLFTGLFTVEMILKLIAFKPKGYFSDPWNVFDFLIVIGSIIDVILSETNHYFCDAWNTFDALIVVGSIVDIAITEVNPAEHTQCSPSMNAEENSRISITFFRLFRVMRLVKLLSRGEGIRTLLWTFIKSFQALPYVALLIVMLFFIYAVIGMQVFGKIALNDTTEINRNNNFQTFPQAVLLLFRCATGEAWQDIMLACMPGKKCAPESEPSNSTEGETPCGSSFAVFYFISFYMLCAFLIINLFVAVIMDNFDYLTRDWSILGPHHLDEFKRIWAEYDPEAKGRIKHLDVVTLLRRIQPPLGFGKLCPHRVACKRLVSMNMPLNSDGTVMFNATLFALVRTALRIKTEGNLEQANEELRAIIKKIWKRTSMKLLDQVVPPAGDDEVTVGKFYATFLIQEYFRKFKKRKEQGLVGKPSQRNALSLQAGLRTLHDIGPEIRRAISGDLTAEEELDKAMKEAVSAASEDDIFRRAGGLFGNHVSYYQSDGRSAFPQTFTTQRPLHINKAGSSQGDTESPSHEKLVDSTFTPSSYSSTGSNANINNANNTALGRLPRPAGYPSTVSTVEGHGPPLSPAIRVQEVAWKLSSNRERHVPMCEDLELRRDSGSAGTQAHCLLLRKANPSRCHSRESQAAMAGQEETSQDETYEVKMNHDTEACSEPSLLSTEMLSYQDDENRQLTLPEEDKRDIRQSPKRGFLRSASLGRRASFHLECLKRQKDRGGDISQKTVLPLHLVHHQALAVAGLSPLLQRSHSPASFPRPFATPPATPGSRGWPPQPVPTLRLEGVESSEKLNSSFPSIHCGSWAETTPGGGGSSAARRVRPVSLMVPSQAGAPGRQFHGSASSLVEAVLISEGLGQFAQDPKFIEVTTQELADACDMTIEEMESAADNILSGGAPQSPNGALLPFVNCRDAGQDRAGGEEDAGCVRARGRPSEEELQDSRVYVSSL
T1 sequence (Q08289 whole entry partner): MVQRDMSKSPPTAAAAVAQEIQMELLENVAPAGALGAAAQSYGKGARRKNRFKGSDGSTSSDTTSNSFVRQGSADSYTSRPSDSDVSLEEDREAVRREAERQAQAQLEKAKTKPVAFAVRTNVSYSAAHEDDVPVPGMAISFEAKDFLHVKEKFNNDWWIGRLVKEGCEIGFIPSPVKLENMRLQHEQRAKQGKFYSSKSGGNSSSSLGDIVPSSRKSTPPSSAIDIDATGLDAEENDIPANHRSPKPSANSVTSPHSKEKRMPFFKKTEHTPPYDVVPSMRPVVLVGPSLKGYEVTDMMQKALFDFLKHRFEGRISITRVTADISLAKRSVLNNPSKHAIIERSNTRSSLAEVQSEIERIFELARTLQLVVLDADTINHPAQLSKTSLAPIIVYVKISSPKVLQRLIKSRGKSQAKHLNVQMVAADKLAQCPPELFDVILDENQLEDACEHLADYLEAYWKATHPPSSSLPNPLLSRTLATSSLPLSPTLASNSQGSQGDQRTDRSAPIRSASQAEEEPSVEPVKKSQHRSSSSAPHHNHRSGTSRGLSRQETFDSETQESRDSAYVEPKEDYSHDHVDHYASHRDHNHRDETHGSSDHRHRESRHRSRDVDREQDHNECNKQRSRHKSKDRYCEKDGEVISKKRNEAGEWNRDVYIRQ
T1 sequence (P54289 25-1103 partner): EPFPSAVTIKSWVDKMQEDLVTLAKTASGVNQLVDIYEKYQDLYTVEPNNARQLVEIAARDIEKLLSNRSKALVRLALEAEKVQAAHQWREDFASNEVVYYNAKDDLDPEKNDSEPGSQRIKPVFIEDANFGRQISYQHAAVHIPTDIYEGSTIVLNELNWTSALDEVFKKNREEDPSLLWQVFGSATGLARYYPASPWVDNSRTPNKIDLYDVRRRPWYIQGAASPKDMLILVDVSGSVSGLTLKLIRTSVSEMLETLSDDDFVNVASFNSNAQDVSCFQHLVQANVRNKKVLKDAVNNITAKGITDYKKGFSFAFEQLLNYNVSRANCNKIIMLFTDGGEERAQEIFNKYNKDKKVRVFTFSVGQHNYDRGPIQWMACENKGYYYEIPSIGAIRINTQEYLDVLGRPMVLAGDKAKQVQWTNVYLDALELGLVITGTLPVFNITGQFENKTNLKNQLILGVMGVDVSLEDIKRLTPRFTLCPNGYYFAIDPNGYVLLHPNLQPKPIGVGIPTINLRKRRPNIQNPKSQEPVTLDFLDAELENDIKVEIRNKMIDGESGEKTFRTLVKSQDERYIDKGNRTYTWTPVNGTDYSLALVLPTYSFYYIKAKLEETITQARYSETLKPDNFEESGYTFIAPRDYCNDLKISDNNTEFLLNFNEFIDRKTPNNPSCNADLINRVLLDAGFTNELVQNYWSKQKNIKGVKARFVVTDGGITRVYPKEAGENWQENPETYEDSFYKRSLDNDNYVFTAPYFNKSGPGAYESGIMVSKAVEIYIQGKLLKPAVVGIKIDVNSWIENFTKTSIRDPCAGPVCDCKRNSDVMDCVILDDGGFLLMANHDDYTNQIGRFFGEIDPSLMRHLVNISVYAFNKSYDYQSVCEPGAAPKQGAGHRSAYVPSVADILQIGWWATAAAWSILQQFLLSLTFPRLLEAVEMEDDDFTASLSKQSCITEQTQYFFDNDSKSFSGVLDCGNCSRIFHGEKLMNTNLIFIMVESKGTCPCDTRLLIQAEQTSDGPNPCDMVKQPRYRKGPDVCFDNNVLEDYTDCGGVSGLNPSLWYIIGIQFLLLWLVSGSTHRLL

Compound: O=C(Nc1scc(-c2ccc(Br)cc2)c1C(=O)O)c1ccc(F)cc1 [Compound 1, 2-(4-fluorobenzamido)-4-(4-bromophenyl)thiophene-3-carboxylic acid]
- effect on recombinant Cav1.2 L-type Ca2+ channels (hCav.1.2/β2/α2δ channels): inhibits
- IC50 (primary human T cells): ~3.7 µM
- IC50 (RBL-2H3 cells): 3.3 µM
- effect on Monster ICRAC (hOrail/hSTIM1): inhibit
- reduction in liver weight [1]: no liver weight reduction
